For one molecule, weight loss and weight gain results are on record in patent publication US8003665B2, “Salts and polymorphs of a potent antidiabetic compound” (Amgen Inc., priority 2003, dated 2011).

The nature of the data set: Moisture sorption/desorption (hygroscopicity). The data set is classed as physicochemical. As for the experimental part: Moisture sorption/desorption data were collected on a VTI SGA-100 Vapor Sorption Analyzer. Sorption and desorption data were collected over a range of 5% to 95% relative humidity (“RH”) at 10% RH intervals under nitrogen purge. Samples were not dried prior to analysis. Equilibrium criteria used for analysis were less than 0.0100% weight change in 5 minutes, with a maximum equilibration time of 3 hours if the weight criterion was not met. Data were not corrected for the initial moisture content of the samples. NaCl and PVP were used as calibration standards. This example illustrates the differential scanning calorimetry (DSC) and hygroscopicity analysis of Form I prepared according to Example 6.

The structures appear in SMILES notation.

`O=S(=O)(Nc1cc(Cl)c(Oc2cnc3ccccc3c2)c(Cl)c1)c1ccc(Cl)cc1Cl.O=S(=O)(O)c1ccccc1` [Form I, 2,4-Dichloro-N-[3,5-dichloro-4-(quinolin-3-yloxy)-phenyl]-benzenesulfonamide benzenesulfonate salt] gave a weight loss (moisture desorption, from 95% to 25% relative humidity) of 0.6%. Moreover, the weight gain (moisture sorption, from 25% to 95% relative humidity) is reported as 0.6%.
